# What was measured:
# [1] = molecular target: T1, Porcine tubulin (colchicine binding site) (Sus scrofa, UniProt P02554); test: Colchicine competitive binding assay (fluorescence); details: compound 50 µM, colchicine 10 μM, tubulin 20 μM
# T1 construct: purchased Cytoskeleton, Inc. T240; host or cells: brain tissue (purified)
# porcine tubulin = molecular target: T2, porcine tubulin (Sus scrofa, UniProt P02554); test: Tubulin polymerization assay (fluorescent reporter); assay type: biochemical; details: porcine tubulin 20 μM; for reduction in tubulin polymerization (AUC): compound 5 μM, relative to DMSO
# T2 construct: purchased Cytoskeleton, Inc. BK011P
# Description: Tubulin polymerization was evaluated by monitoring the incorporation of a fluorescent reporter into MTs during polymerization. The tubulin polymerization assay kit (Cytoskeleton, Inc. BK011P; Denver, CO, USA) was used according to the manufacturer’s instructions. Briefly, the tubulin reaction mix was kept on ice until immediately prior to use.
# (A,B) Representative tubulin polymerization plots and data quantification. […] (C) Immunofluorescence staining of β-tubulin in U87 glioblastoma cells. […] Images were captured using an Operetta confocal microscope at 40× magnification. Scale bar, 10 μm. […] Data was collected with a BD FACS Canto II Flow Cytometer and analyzed using the BD FACSDiva software. (E) The percentage of cells in G1, S, and G2/M phases from the histograms in (D). Data are plotted as mean ± SD from at least three independent experiments. Analysis between groups in (B) was performed using a one-way ANOVA with Tukey’s multiple comparisons test.
# U87 glioblastoma cells [2] = test: alamarBlue cell viability assay, U87; assay type: cell-based; details: Homo sapiens, 72 h, U87, 72 h, average absolute IC50
# Description: (§1) Cells (100 µL/well) were seeded in 96-well tissue culture plates (Greiner Bio-One 650090; Kremsmünster, Austria). The plating density (cells/well) for each cell line was as follows: LN-18 (3000), U87 (4000), and HMC3 (5000). After overnight incubation, compounds were added to the cells (50 µL at 3× concentration, final 0.1% DMSO), and plates were incubated for 72 h. Cell viability was assessed by the addition of 25 µL of alamarBlue for a final concentration of 100 µM final concentration (Resazurin redox reagent, Sigma-Aldrich R7017; St. Louis, MO, USA). After a 4 h incubation, fluorescence was read on a CLARIOstar Plus plate reader (BMG Labtech, Ortenberg, Germany) at EX 570/EM 590 nm.
# U87 glioblastoma cells [3] = test: Cell cycle analysis (propidium iodide flow cytometry); assay type: cell-based, human; details: 48 h
# Description: […] Cells were washed in ice-cold PBS, resuspended in 1 mL of ice-cold 70% ethanol, and fixed overnight at −20 °C. Cells were centrifuged and resuspended in PBS containing RNAse A at a final concentration of 0.5 mg/mL (MilliporeSigma 10109142001; Burlington, MA, USA) and propidium iodide at a final concentration of 0.04 mg/mL (Sigma-Aldrich P4170, St. Louis, MO, USA) for 1 h at 37 °C. Nuclear staining was analyzed using a BD FACSCanto II flow cytometer (BD Biosciences; Franklin Lakes, NJ, USA) to determine cell cycle distribution. Cell cycle analysis was performed using the BD FACSDiva software v8.0.
# [4] = tested on: U87 cells (microtubule network); test: Immunofluorescent staining of cellular β-tubulin; assay type: cell-based, human; details: U87, compounds at their IC50 concentrations, 24 h
# Description: U87 cells (4000/well) were plated in black 96-well plates (Perkin Elmer 6055302; Waltham, MA, USA) and grown overnight. Cells were treated with compounds for 24 h, fixed with 4% paraformaldehyde for 20 min, and permeabilized with FoxP3 permeabilization buffer (eBioscience/Thermo Fisher Scientific 00-5523-00; Waltham, MA, USA) for 10 min at RT. Cells were incubated with an anti-TUBB3 (Tuj1) antibody (1:1000; […] Technologies 60052; Vancouver, BC, Canada) labeled with Hoechst 33342 dye (1:2000; Thermo Fisher Scientific H3570; Waltham, MA, USA). Images (40×) were taken with an automated high-content imaging microscope (Operetta, Perkin Elmer; Waltham, MA, USA).
# [5] = tested on: LN-18 glioblastoma cells (TMZ-resistant); test: alamarBlue cell viability assay, LN-18; assay type: cell-based; details: Homo sapiens, LN-18, 72 h, average absolute IC50
# Description: as §1
SMILES,reduction of colchicine–tubulin fluorescence relative to control [1] [%],increase in tubulin polymerization (AUC) (porcine tubulin; paclitaxel 3 μM) [%],IC50 (U87 glioblastoma cells [2]) [nM],"cells arrested at G2/M (U87 glioblastoma cells [3]; U87, 5 µM) [%]",reduction in tubulin polymerization (AUC) (porcine tubulin),effect on tubulin organization / MT network morphology [4],IC50 [5] [nM],"cells arrested at G2/M (U87 glioblastoma cells [3]; U87, 20 nM) [%]"
"COC(=O)Nc1nc2ccc(C(=O)c3cccs3)cc2[nH]1 [NOC, Nocodazole, reference compound]",79,–,–,–,–,–,–,–
"CC(=O)O[C@H]1C(=O)[C@@]2(C)[C@H]([C@H](OC(=O)c3ccccc3)[C@]3(O)C[C@H](OC(=O)[C@H](O)[C@@H](NC(=O)c4ccccc4)c4ccccc4)C(C)=C1C3(C)C)[C@]1(OC(C)=O)CO[C@@H]1C[C@@H]2O [PX, paclitaxel, reference compound]",–,91,–,–,–,–,–,–
CO[C@H]1CC[C@@H](C(=O)NC(=O)Nc2ccc(Oc3ncc(Cl)cn3)c(C)c2)CC1 [RGN3062],–,–,588,73,36%,substantial tubulin disruption,73,–
CO[C@H]1CC[C@H](C(=O)NC(=O)Nc2ccc(Oc3ncc(Cl)cn3)c(C)c2)CC1 [RGN3096],–,–,> 10000,11,no difference relative to the DMSO control,no visible effect on tubulin and cell structure,2430,–
"COc1cc2c(c(OC)c1OC)-c1ccc(OC)c(=O)cc1[C@@H](NC(C)=O)CC2 [colchicine, reference compound]",–,–,–,–,–,varying levels of disruption of tubulin organization,–,64
